In PubChem BioAssay (NCI) one finds TGI and GI50 data, which are given here for 33 molecules.

What all share (experiment): growth of human tumour cells (NCI), 48 h
The test system of assay [1] is NCI-H23 lung.
For assay [2], the system named is SK-MEL-5 melanoma.
In assay [3] the test system is UACC-62 melanoma.
Assay [4] has as its system SNB-19 CNS.
Assay [5] relates to SF-295 CNS.
Assay [6] concerns ACHN renal.
For assay [7], the system named is MDA-MB-435.
In assay [8] the test system is MCF7 breast.
Assay [9] concerns DU-145 prostate.
The subject of assay [10] is BT-549 breast.

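Cells were grown in 96-well plates and exposed to each compound for 48 hours at five concentrations; endpoints were interpolated linearly between bracketing concentrations, or set to the highest concentration if not reached. GI50 is the concentration that inhibits growth by half. TGI denotes the concentration required for complete inhibition of growth.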 Where only a bound is given, the exact number is not on record here.

Turning to `N/N=C1\C(=O)N(c2ccc(Cl)cc2Cl)C(=O)C(=O)C1c1nc2ccccc2o1` (stereo unspecified), the TGI in [1], in assay [2], in [3], in assay [4], in assay [5] and in assay [6] was over 100 µM in each case.

Regarding `c1ccc2c(c1)oc1ccc3nsnc3c12`, the TGI in assay [1], in assay [2], in assay [3], in assay [4], in [5] and in [6] was over 100 µM each time.

Regarding `N.N.N.N.N.O=[N+]([O-])[O-].[Co+3].[O-][Cl+3]([O-])([O-])[O-]`, the GI50 in assay [1], in [2], in assay [3], in assay [4], in [5] and in assay [6] was over 100 µM throughout. The TGI in assay [1], in assay [2], in [3], in assay [4], in assay [5] and in [6] was over 100 µM each time.

On to `COc1ccc(/C(Cl)=C/c2cc(OC)ccc2OC)cc1`, for which the TGI in [1], in assay [2], in [3], in assay [4], in assay [5] and in assay [6] was over 100 µM in each case.

In the case of `C=CCC1=C(C)C[C@@H]2CCC(=O)C=C12`, the TGI in assay [1], in [2], in [3], in assay [4], in assay [5] and in assay [6] was over 100 µM throughout.

With `c1ccc(CN2CCC(Nc3ccccc3)(c3nnnn3Cc3ccccc3)CC2)cc1`, the TGI in assay [7] was over 100 µM; in [8] it was 88.2 µM; in [1], over 100 µM; in [2] it was 25.6 µM; in assay [3], over 100 µM; in assay [4], over 100 µM. Further, the TGI was over 100 µM in assay [9], 44.8 µM in assay [5] and over 100 µM in assay [6].

Consider `COc1ccc(CCn2c(=O)c3ccccc3n(C)c2=O)cc1`, for which the TGI in assay [1], in assay [2], in assay [3], in [4], in [5] and in [6] was over 100 µM each time.

In the case of `NNC(=O)C(=O)N/N=C1\CCC(=O)CC1C(=O)CCC(=O)Nc1ccc(Cl)cc1` (stereo unspecified), the TGI in [1], in assay [2], in assay [3], in assay [4], in [5] and in assay [6] was over 100 µM throughout.

As for `COc1ccc(CCc2cc(OC)cc(OC)c2)cc1`, the TGI is over 100 µM in [1]; over 87 µM in assay [2]; over 100 µM in [3]; over 100 µM in [4]; over 100 µM in [5]; over 100 µM in assay [6].

Turning to `C=CCO/N=C(\OC(=O)c1ccc([N+](=O)[O-])cc1)c1ccccc1`, the TGI in assay [1], in [2], in assay [3], in assay [4], in [5] and in [6] was over 100 µM each time.

Take `CC(=O)O[C@]1(C)OC(=O)[C@@H](CC(C)C)N1[N+](=O)[O-]`: the TGI in assay [1], in [2], in [3], in assay [4], in assay [5] and in [6] was over 100 µM each time.

Regarding `Cc1c(NC(=S)NC(=O)c2ccc([N+](=O)[O-])cc2)c(=O)n(-c2ccccc2)n1C`, the TGI in assay [1], in [2], in [3], in assay [4], in [5] and in assay [6] was over 100 µM each time.

As to `CC1=NN(C(=O)c2ccc(Cl)cc2)C(=O)/C1=C/c1ccccc1O`, the TGI in assay [1], in assay [2], in [3], in assay [4], in assay [5] and in assay [6] was over 100 µM throughout.

`COc1ncnc(S(=O)(=O)c2ccc(N=C3C(=O)N(CN4CCN(c5cc6c(cc5F)c(=O)c(C(=O)O)cn6C5CC5)CC4)c4ccc(Cl)cc43)cc2)c1OC`: the GI50 is over 50 µM in [7]; 34.1 µM in [8]; over 50 µM in [1]; 19.7 µM in assay [2]; 8.75 µM in assay [3]; over 50 µM in assay [4]. Further, the GI50 in assay [9] was over 50 µM; in assay [5], over 50 µM; in assay [6], 10.2 µM. For the same molecule, the TGI in [7], in [8], in assay [1], in [2], in assay [3] and in assay [4] was over 50 µM each time. For the same molecule, the TGI in assay [9], in assay [5] and in assay [6] was over 50 µM each time.

For `O=S(=O)(NCn1ccc2ccccc21)c1ccccc1`, the TGI is over 100 µM in assay [1]; over 100 µM in assay [2]; over 100 µM in assay [3]; over 31.6 µM in [4]; over 100 µM in assay [5]; over 100 µM in assay [6].

In the case of `Cc1ccc(N=Nc2c(O)ccc3ccccc23)cc1`, the TGI in [7], in assay [1], in assay [2], in assay [3], in [10] and in assay [4] was over 100 µM throughout. Besides, the TGI in [9], in assay [5] and in assay [6] was over 100 µM in each case.

Consider `Cn1c(-c2ccc(/C=N/NC(=S)N/N=C/c3ccc(-c4c[n+]5ccsc5n4C)cc3)cc2)c[n+]2ccsc12`, for which the TGI in assay [7], in assay [8], in assay [2], in assay [4], in [5] and in assay [6] was over 100 µM in each case.

For the molecule `O=c1ncccn1C1OC(CO)C(O)C1O` (stereo unspecified), the TGI in assay [1], in [3], in assay [4] and in assay [6] was over 100 µM throughout.

Consider `COC(=O)c1c2c(cc3c1CC1(Cc4cc5c(c(C(C)=O)c4C1)CCC5)C3)CCC2` (stereo unspecified), for which the TGI in [1] was over 100 µM; in assay [2], over 100 µM; in assay [3], over 100 µM; in assay [4] it was over 100 µM; in assay [5] it was 99.3 µM; in assay [6] it was over 100 µM.

With `Cc1cccc(C)c1NC(=O)CCc1nc(=S)[nH][nH]1`, the TGI in assay [1], in assay [3], in assay [4] and in assay [6] was over 100 µM throughout.

With `Cc1c(-c2ccnc(N)n2)c2c(n1Cc1ccccc1)C(=O)c1ccccc1C2=O`, the GI50 was 4.84 µM in assay [7]; 12.8 µM in assay [2]; over 100 µM in [3]; 2.99 µM in assay [10]; 18.1 µM in [4]; 9.82 µM in [9]. The results for the GI50 in [5] and in assay [6] were 3.12 µM and 8.34 µM, respectively. Besides, the TGI is 24.2 µM in assay [7]; 27.8 µM in [2]; over 100 µM in [3]; 8.4 µM in assay [10]; over 100 µM in [4]; 41.2 µM in [9]. Also, the TGI in assay [5] stood at 15 µM; in [6], 36.8 µM.

For `NCCOCCOCCNc1nc(-c2ccc(Cl)cc2)nc(N2CCN(c3ccccn3)CC2)n1`, the GI50 was 1.78 µM in assay [7]; 1.86 µM in [1]; 1.71 µM in assay [2]; 1.99 µM in [3]; 4.48 µM in assay [10]; 2.17 µM in [9]. Also, the values for the GI50 in [5] and in assay [6] were 2.35 µM and 2.48 µM, respectively. Also, the TGI stood at 3.49 µM in assay [7]; 3.83 µM in [1]; 3.19 µM in assay [2]; 3.91 µM in assay [3]; 21.2 µM in assay [10]; 4.51 µM in assay [9]. Besides, the TGI in assay [5] was found to be 6.46 µM; in [6] it was 6.43 µM.

`CC(C)(C)C(=CS(=O)/N=C/c1ccccc1)C(C)(C)C` (stereo unspecified): the TGI was over 100 µM in assay [1], 73 µM in [2], over 100 µM in [4] and over 100 µM in assay [6].

Consider `COc1ccc(C(=O)C(CC2C(=O)NC(=O)NC2=O)c2ccc(OC)cc2)cc1` (stereo unspecified), for which the TGI in [1], in assay [2], in [3], in assay [4], in assay [5] and in assay [6] was over 100 µM throughout.

Turning to `Cc1cc(N(CCC#N)CCC#N)ccc1N=Nc1ccc(Br)cc1`, the TGI in [1] is over 51.3 µM; in [2], 27.8 µM; in assay [3] it was over 87.2 µM; in [4], over 57.6 µM; in [5], over 51 µM; in [6] it was over 42.2 µM.

With `CC1CCSC(N(C(=O)N(C)c2ccccc2)c2ccccc2)=N1` (stereo unspecified), the TGI in [1], in [2], in [3], in [4], in [5] and in assay [6] was over 100 µM throughout.

`CC(C)CCCC(C)[C@H]1CCC2[C@@H]3CCC4Nc5c(cnn5-c5ccccc5)C[C@]4(C)C3CC[C@@]21C` (stereo partly specified): the TGI is over 100 µM in assay [1]; over 100 µM in [2]; 40.4 µM in assay [3]; 63.1 µM in assay [4]; 7.46 µM in assay [5]; over 100 µM in assay [6].

On to `CCOC(=O)CCn1ncc(Cl)c(Cl)c1=O`, for which the TGI is 4.66 µM in assay [1]; 25.3 µM in assay [2]; 19.2 µM in assay [3]; 26.7 µM in assay [4]; 34.2 µM in assay [5]; 33.7 µM in assay [6].

As for `CC(C)OP(=O)(OC(C)C)/C(N)=N/Nc1ccc([N+](=O)[O-])cc1`, the TGI in assay [1], in [2], in [3], in assay [4] and in [6] was over 100 µM throughout.

As to `C[Si](C)(C)/C=C\CCO`, the TGI in assay [1], in [2], in [3], in assay [4], in [5] and in [6] was over 100 µM in each case.

As for `Cc1cc(N=C2C=C(Br)C(=O)C(Br)=C2)cc(CN(CC(=O)O)CC(=O)O)c1O`, the TGI in assay [7], in [8], in assay [1], in assay [2], in assay [3] and in assay [4] was over 100 µM throughout. Moreover, the TGI in [9], in assay [5] and in assay [6] was over 100 µM each time.

Take `CC(=O)[O-].[Mn+3].[O-]c1ccccc1C=NCCNCCN=Cc1ccccc1[O-]`: the GI50 in assay [1], in [2], in assay [3], in assay [4], in assay [5] and in assay [6] was over 100 µM throughout. For the same molecule, the TGI in [1], in [2], in assay [3], in [4], in [5] and in [6] was over 100 µM in each case.

Turning to `O=c1[nH]c2ccccc2n1CCCN1CCC(n2c(=O)[nH]c3cc(Cl)ccc32)CC1`, the TGI turned out to be 29.7 µM in [7]; 34.9 µM in assay [8]; 31.2 µM in [1]; 29.1 µM in [2]; 37.2 µM in assay [3]; 33.2 µM in assay [10]. Besides, the TGI in assay [9] was 39.2 µM; in [6], 32.9 µM.
